# Experiments:
# ET receptors = assay: Effect of ET-l on phosphatidyl inositol turnover (IPl formation) in rat brain slices, counter-test; assay type: cell-based; details: rat striatum slices, ETl 10^-6M
# Experimental: The buffer was changed every 15 minutes.
# [1] = tested on: Endothelin Converting Enzyme (ECE); details: read-out: IC50 (concentration inhibiting 50% of the effect of pro-ETl 10^-6M); rat striatum slices; pro-ET-l 10^-6M; [3H]-IPl accumulation; determined graphically
# Source text: In vitro Endothelin Converting Enzyme (ECE) assay via IPl formation in rat brain slices. This assay measures the enzymatic activity responsible for the generation of functional ET-l from pro-ET-l by measuring the stimulation of phosphatidyl inositol turnover as a marker of ET-l effects:
# The precursor of ET-l, i.e., proendothelin-l (pro-ET-l), is unable to stimulate the phosphatidyl inositol turnover unless it is cleaved by a specific phosphoramidon sensitive protease, i.e., endothelin converting enzyme (ECE). […] For this assay, an adaptation of the procedure of Brown et al., J. Neurochem., 42:1379, 1984, was used.
# The exact concentration of these solutions was checked by absorbance spectrophotometry at 280 nm, using the equation C = A / L ε280 [formula] (with C the concentration of the peptide in solution, A the absorbance measured, L the optical path length of the solution and ε280 the extinction coefficient of the peptide in solution (8370 and 7025 M^-1cm^-1 for pro-ET-l and ET-l, respectively)]. The stock solutions were then aliquoted, lyophilized and stored at -20°C. The peptides were redissolved and diluted in water on the day of the experiment (peptides for other tests also prepared by this method ). […]
# In these conditions the stimulation of phosphatidyl inositol turnover by pro-ET-l can be assessed by measuring the amount of accumulated [^3H]-IPl.
smiles,measurement,setting,value
CC(C)C[C@H](NP(=O)(O)O[C@@H]1O[C@@H](C)[C@H](O)[C@@H](O)[C@H]1O)C(=O)N[C@@H](Cc1c[nH]c2ccccc12)C(=O)O [phosphoramidon],IC50,"ET receptors; [3H]-IPl accumulation, determined graphically, read-out: RC50 (concentration reducing 50% of the effect of ETl 10^-6M)",> 30 µM
same,% of maximal reduction observed,ET receptors; recorded when RC50 >30 µM (up to 3 × 10^-5M),75 ± 9%
same,IC50,[1],6.4 ± 1.1 µM
